In patent US20160362416A1, “ANTIVIRAL COMPOUNDS” (Gilead Sciences, Inc., priority 2012, published 2016):

Tests used:
[1] = tested on: stable HCV 1b RLuc replicon cells (genotype 1b Con1 replicon); assay: HCV genotype 1b RLuc replicon reporter assay; format: cell-based; details: Hepatitis C virus; stable genotype 1b Con1 RLuc replicon cells, 72 hours
Procedure, shortened: (§1)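 Stable 1b Con1 RLuc replicon cells, or Huh-Lunet cells transiently transfected with chimeric replicons (Con1 backbone carrying 3a S52 or 4a ED43 NS5A; JFH-1 backbone carrying 2b MD2b-1 NS5A, M31), treated with 3-fold dilutions for 72 h. Renilla luciferase read after lysis; EC50 by non-linear regression.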

[2] = tested on: stable HCV 1a RLuc replicon cells (genotype 1a H77 replicon); assay: HCV genotype 1a RLuc replicon reporter assay; format: cell-based; details: Hepatitis C virus; stable genotype 1a H77 RLuc replicon cells, 72 hours
[3] = IV and PO single dose pharmacokinetic studies in SD rats; format: in vivo; details: Sprague-Dawley, rat, plasma, male SD rats, IV infusion 1 mg/kg, oral gavage 2 mg/kg, read-out: Rat % F
Description: IV and PO Single Dose Pharmacokinetic Studies in SD Rats: The pharmacokinetics of selected compounds was characterized in male Sprague-Dawley (SD) rats (250-300 g). In this study, two groups of naïve purebred SD rats (N=3 per group, fasted over night) received the selected compound either as an intravenous (IV) infusion (1 mg/kg over 30 minutes) via the jugular vein or by oral gavage (2 mg/kg). The intravenous (IV) dosing vehicle was 5% ethanol, 35% polyethylene glycol 400 (PEG 400) and 60% water pH 2.0. The oral dosing vehicle was 5% ethanol, 55% PEG 400 and 40% citrate buffer pH 2.2.
Serial blood samples (approximately 0.3 mL each) were collected from jugular vein or other suitable vein at specified time points. For the IV infusion group, the blood samples were collected predose and at 0.25, 0.48, 0.58, 0.75, 1.5, 3, 6, 8, 12 and 24 hours after the start of infusion. For the oral group, the blood samples were collected predose and at 0.25, 0.50, 1, 2, 4, 6, 8, 12 and 24 hours after dosing. The blood samples were collected into Vacutainer™ tubes containing EDTA-K3 as the anti-coagulant and were centrifuged at approximately 4° C. to obtain plasma. The plasma samples were stored at −20° C. until analysis by LC/MS/MS.
A bioanalytical method utilizing high performance liquid chromatography coupled to tandem mass spectrometry (LC/MS/MS) was developed for analysis of the selected compound in rat plasma. Detection was performed using selected reaction monitoring (SRM); Ions representing the precursor (M+H)^+ species was selected in quadrupole 1 (Q1) and collided with argon gas in the collision cell (Q2) to generate specific product ion, which was subsequently monitored by quadrupole 3 (Q3). Standard curve and quality control samples were prepared in male rat plasma and processed in the same way as the test samples to generate quantitative data.
Pharmacokinetic parameters were generated using non-compartmental pharmacokinetic analysis (Phoenix WinNonlin, version 6.3). Values below the lower limit of quantification (LLOQ) were assigned a value of zero if predose and treated as missing thereafter. Area under the curve (AUC) was calculated using the linear trapezoidal rule. The oral bioavailability (% F) was determined by comparison of the area under the curve (AUC) of the compound and/or a metabolite generated in plasma following oral administration to that generated following intravenous administration.

[4] = tested on: L31V/Y93H in genotype 1b NS5A replicon; assay: Resistance mutant replicon assay, genotype 1b NS5A L31V/Y93H; format: cell-based, HCV; details: Hepatitis C virus, read-out: 1b L31V/Y93H (nM)
Description: (§2) Evaluation of cell-based anti-HCV activity: Antiviral potency (EC50) was determined using a Renilla luciferase (RLuc)-based HCV replicon reporter assay. To perform the assay for genotype 1 and 2a JFH-1, stable HCV 1a RLuc replicon cells (harboring a dicistronic genotype 1a H77 replicon that encodes a RLuc reporter), stable HCV lb RLuc replicon cells (harboring a dicistronic genotype 1b Conl replicon that encodes a RLuc reporter), or stable HCV 2a JFH-1 Rluc replicon cells (harboring a dicistronic genotype 2a JFH-1 replicon that encodes a RLuc reporter; with L31 present in NS5A) were dispensed into 384-well plates for EC50 assays. To perform the assay for genotype 2a (with M31 present in NS5A) or 2b, NS5A chimeric genotype 2a JFH-1 replicons that encodes a RLuc-Neo reporter and either genotype 2a J6 strain NS5A gene or genotype 2b MD2b-1 strain NS5A gene (both with M31 present) respectively, were either transiently transfected (t) into Huh-Lunet cells or were established as stably replicating replicon cells (s) is provided. Either cells were dispensed into 384-well plates for EC50 assays. To perform the assay for genotype 3 and 4, NS5A chimeric genotype 1b Conl replicons that encodes a Pi-RLuc reporter and either genotype 3a S52 strain NS5A gene or genotype 4a ED43 strain NS5A gene respectively, were transiently transfected (t) into Huh-Lunet cells, which were subsequently dispensed into 384-well plates. Compounds were dissolved in DMSO at a concentration of 10 mM and diluted in DMSO either manually or using an automated pipeting instrument. Serially 3-fold diluted compounds were either manually mixed with cell culture media and added to the seeded cells or directly added to the cells using an automated instrument. DMSO was used as a negative (solvent; no inhibition) control, and the protease inhibitor ITMN-191 was included at a concentration >100×EC50 as a positive control. 72 hours later, cells were lysed and Renilla luciferase activity quantified as recommended by the manufacturer (Promega-Madison, Wis.). Non-linear regression was performed to calculate EC50 values.
(§3) To determine the antiviral potency (EC50) against resistance mutants, resistance mutations, including M28T, Q30R, Q30H, Q30E, L31M, Y93C, Y93H, and Y93N in genotype 1a NS5A, Y93H and L31V/Y93H in genotype 1b NS5A, and Y93H for in genotype 3a NS5A, were introduced individually into either 1a Pi-Rluc or 1b Pi-Rluc replicons by site directed mutagenesis. Replicon RNA of each resistant mutant was transiently transfected into Huh-7-derived cured-51 cells and antiviral potency was determined on these transfected cells as described above.

[5] = tested on: Q30E in genotype 1a NS5A replicon; assay: Resistance mutant replicon assay, genotype 1a NS5A Q30E; format: cell-based, HCV; details: Hepatitis C virus, read-out: 1a Q30E (nM)
Description: as §2, §3

[6] = tested on: Y93N in genotype 1a NS5A replicon; assay: Resistance mutant replicon assay, genotype 1a NS5A Y93N; format: cell-based, HCV; details: Hepatitis C virus, read-out: 1a Y93N (nM)
Procedure, shortened: (§4)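 Mutations introduced by site-directed mutagenesis into 1a or 1b Pi-RLuc replicons (3a Y93H in 1b Con1 chimera carrying 3a S52 NS5A), RNA transiently transfected into Huh-7-derived cured-51 cells. 3-fold compound dilutions; Renilla luciferase read after 72 h; EC50 by non-linear regression.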

[7] = tested on: Y93H in genotype 3a NS5A replicon; assay: Resistance mutant replicon assay, genotype 3a NS5A Y93H; format: cell-based, HCV; details: Hepatitis C virus, read-out: 3a Y93H (nM)
Procedure, shortened: as §4

[8] = tested on: stable HCV 2a JFH-1 Rluc replicon cells (L31 present in NS5A); assay: HCV genotype 2a JFH-1 RLuc replicon reporter assay; format: cell-based; details: Hepatitis C virus, 72 h, read-out: 2a JFH (nM)
[9] = tested on: NS5A chimeric genotype 2a JFH-1 replicon with genotype 2a J6 strain NS5A gene (M31); assay: HCV genotype 2a J6 NS5A chimeric replicon assay, transient (t); format: cell-based; details: Hepatitis C virus, 72 h, read-out: 2a J6 (t) (nM)
[10] = tested on: NS5A chimeric genotype 2a JFH-1 replicon with genotype 2b MD2b-1 strain NS5A gene (M31); assay: HCV genotype 2b NS5A chimeric replicon assay, transient (t); format: cell-based; details: Hepatitis C virus, 72 h, read-out: 2b (t) (nM)
Description: as §2

[11] = tested on: NS5A chimeric genotype 1b Con1 replicon with genotype 3a S52 strain NS5A gene; assay: HCV genotype 3a NS5A chimeric replicon assay; format: cell-based; details: Hepatitis C virus, 72 h, read-out: 3a (nM)
Procedure, shortened: as §1

[12] = tested on: NS5A chimeric genotype 1b Con1 replicon with genotype 4a ED43 strain NS5A gene; assay: HCV genotype 4a NS5A chimeric replicon assay; format: cell-based; details: Hepatitis C virus, 72 h, read-out: 4a (s) (nM)
[13] = tested on: Y93H in genotype 1a NS5A replicon; assay: Resistance mutant replicon assay, genotype 1a NS5A Y93H; format: cell-based, HCV; details: Hepatitis C virus, read-out: 1a Y93H (nM)
Procedure, shortened: as §4

Compound | EC50 [1] [nM] | EC50 [2] [nM] | bioavailability [3] [%] | EC50 [4] [nM] | EC50 [5] [nM] | EC50 [6] [nM] | EC50 [7] [nM] | EC50 [8] [nM] | EC50 [9] [nM] | EC50 [10] [nM] | EC50 [11] [nM] | EC50 [12] [nM] | EC50 [13] [nM]
CC[C@H]1C[C@@H](c2nc3ccc4cc5c(cc4c3[nH]2)OCc2cc(-c3cnc([C@@H]4CC[C@H](C)N4C(=O)[C@@H](NC(=O)OC)C(C)C)[nH]3)ccc2-5)N(C(=O)[C@@H](NC(=O)OC)C2CCOCC2)C1 [Comp 1, reference compound] | 0.027 | 0.018 | 9.9 | 0.971 | 0.319 | 2.05 | 8.07 | – | – | – | – | – | –
COC[C@H]1C[C@@H](c2ncc(-c3ccc4c(c3)COc3cc5c(ccc6nc([C@@H]7CC[C@H](C)N7C(=O)[C@@H](NC(=O)OC)C(C)C)[nH]c65)cc3-4)[nH]2)N(C(=O)[C@@H](NC(=O)OC)C2C[C@@H](C)O[C@H](C)C2)C1 (stereo partly drawn) [Example AB, Methyl {(2S)-1-[(2S,5S)-2-(9-{2-[(2S,4S)-1-{(2S)-2-[(2R,6R)-2,6-dimethyltetrahydro-2H-pyran-4-yl]-2-[(methoxycarbonyl)amino]acetyl}-4-(methoxymethyl)pyrrolidin-2-yl]-1H-imidazol-5-yl}-1,11-dihydroisochromeno[4′,3′:6,7]naphtho[1,2-d]imidazol-2-yl)-5-methylpyrrolidin-1-yl]-3-methyl-1-oxobutan-2-yl}carbamate] | 0.046 | 0.026 | – | 0.668 | 0.082 | 0.418 | 8.77 | 0.011 | 0.028 | 0.024 | 0.025 | 0.006 | 0.163
CC[C@H]1C[C@@H](c2nc3ccc4cc5c(cc4c3[nH]2)OCc2cc(-c3cnc([C@@H]4CC[C@H](C)N4C(=O)[C@@H](NC(=O)OC)C(C)C)[nH]3)ccc2-5)N(C(=O)[C@@H](NC(=O)OC)C2C[C@@H](C)O[C@H](C)C2)C1 (stereo partly drawn) [Example AF, Methyl [(1S)-1-[(2R,6R)-2,6-dimethyltetrahydro-2H-pyran-4-yl]-2-{(2S,4S)-4-ethyl-2-[9-(2-{(2S,5S)-1-[N-(methoxycarbonyl)-L-valyl]-5-methylpyrrolidin-2-yl}-1H-imidazol-5-yl)-1,11-dihydroisochromeno[4′,3′:6,7]naphtho[1,2-d]imidazol-2-yl]pyrrolidin-1-yl}-2-oxoethyl]carbamate] | 0.037 | 0.022 | – | 0.18 | 0.097 | 0.899 | 4.59 | 0.012 | 0.003 | 0.014 | 0.016 | 0.005 | 0.268
